The results in this text go back to patent publication US9969699B2, “Cancer cell growth inhibitor, anticancer agent, and method for screening same, as well as novel compound” (Microbial Chemistry Research Foundation, priority 2014, dated 2018).

In one experiment the test system is NIH3T3/EGFR vIII cells. Nature of the experiment: 3D cell culture step (environment without adhesion scaffold), proliferation of NIH3T3/EGFR vIII cells. It counts as cell-based, mouse. The following applies: for IC50: Mus musculus, 72 h, NIH3T3/EGFR vIII cells, Ultra Low Attachment plate, 3 days, […]-GLO.
Another experiment deals with NIH3T3 cells. The experiment is described as follows: 2D cell culture step (environment with adhesion scaffold), proliferation of NIH3T3 cells. The format is cell-based. Conditions: Mus musculus, read-out: IC50 2D cell culture step. The method, then: Note that, as a negative control, the NIH3T3 cells at 2×10^3 cells/100 were seeded to the same plate in a volume of 100 μL per well and cultured at 37° C. in the presence of 5% CO2 for 3 days without the addition of the test substance.
Note that, Dulbecco's Modified Eagle Medium supplemented with 5% FBS was used for the culture.
A cell proliferation inhibition rate in the 2D cell culture step was calculated according to (Expression 2) below. Cell proliferation inhibition rate(%)=(1−D/E)×100 (Expression 2)
In the (Expression 2), D denotes the number of viable NIH3T3 cells when the test substance was added, and E denotes the number of viable NIH3T3 cells when the test substance was not added.

The mark [1] stands for this setting: 72 h, NIH3T3 cells, TC-treated plate, 3 days, […]-GLO.

Structures are written as SMILES. Where two headings read alike, the source gives them in different places.

Usually IC50 stands for the concentration that gives 50% inhibition.

Regarding `CNc1ccc(Br)cc1-c1nc2ccccc2[nH]c1=O` [Structural Formula (10), 3-[5-bromo-2-(methylamino)phenyl]-2(1H)-quinoxalinone], the IC50 in the experiment on NIH3T3/EGFR vIII cells and in the experiment with NIH3T3 cells (setting [1]) was more than 10 µM throughout.
As for `O=C(O)CCCC(=O)Nc1ccc(Br)cc1-c1nc2ccccc2[nH]c1=O` [Structural Formula (5), 4-{N-[4-bromo-2-(3-oxo(4-hydroquinoxalin-2-yl))phenyl]carbamoyl}butanoic acid], the IC50 in the experiment with NIH3T3/EGFR vIII cells was 0.4 µM; in the experiment with NIH3T3 cells (setting [1]), more than 10 µM.
Consider `Nc1ccccc1-c1nc2ccccc2[nH]c1=O` [Structural Formula (9), 3-(2-aminophenyl)-2(1H)-quinoxalinone], for which the IC50 in the experiment on NIH3T3/EGFR vIII cells and in the experiment on NIH3T3 cells (setting [1]) was more than 10 µM throughout.
For the compound `C#Cc1cccc(Nc2ncnc3cc(OCCOC)c(OCCOC)cc23)c1` [Erlotinib, reference compound], the IC50 in the experiment with NIH3T3 cells (NIH3T3, 72 h) is 50 µM.
Regarding `O=C(Nc1ccc(Br)cc1-c1nc2ccccc2[nH]c1=O)c1ccccc1` [Structural Formula (15)], the IC50 with NIH3T3/EGFR vIII cells and in the experiment on NIH3T3 cells (setting [1]) was more than 10 µM each time.
With `Nc1ccc(F)cc1-c1nc2ccccc2[nH]c1=O` [Structural Formula (7), 3-(2-Amino-5-fluorophenyl)-2(1H)-quinoxalinone], the IC50 in the experiment on NIH3T3/EGFR vIII cells was 0.34 µM; in the experiment with NIH3T3 cells (setting [1]), more than 10 µM.
As to `CCOC(=O)Cn1c(=O)c(-c2cc(Br)ccc2N)nc2ccccc21` [Structural Formula (14), ethyl 2-[3-(2-amino-5-bromophenyl)-2-oxohydroquinoxalinyl]acetate], the values for the IC50 in the experiment with NIH3T3/EGFR vIII cells and with NIH3T3 cells (setting [1]) were 10 µM and more than 10 µM, respectively.
The corresponding values for `Cc1ccc(N)c(-c2nc3ccccc3[nH]c2=O)c1` [Structural Formula (4), 3-(2-amino-5-methylphenyl)hydroquinoxalin-2-one] are 0.5 µM and more than 10 µM.
`Cn1c(=O)c(-c2ccccc2N)nc2ccccc21` [Structural Formula (13), 3-(2-aminophenyl)-1-methyl-2(1H)-quinoxalinone]: the 50% inhibitory concentration (IC50) with NIH3T3/EGFR vIII cells and with NIH3T3 cells (setting [1]) was more than 10 µM each time.
Regarding `CC(=O)Nc1ccc(Br)cc1-c1nc2ccccc2[nH]c1=O` [Structural Formula (3), N-[4-bromo-2-(3-oxo(4-hydroquinoxalin-2-yl))phenyl]acetamide], the IC50 is 0.5 µM with NIH3T3/EGFR vIII cells and more than 10 µM with NIH3T3 cells (setting [1]).
As for `Nc1ccc(Cl)cc1-c1nc2ccccc2[nH]c1=O` [Structural Formula (6), 3-(2-amino-5-chlorophenyl)hydroquinoxalin-2-one], the “cell proliferation inhibiting activity compared with AG1478, Gefitinib and Erlotinib” value in the experiment with NIH3T3/EGFR vIII cells (3D cell culture step) is “more significant cell proliferation inhibiting activity”. Besides, the figures for the IC50 with NIH3T3/EGFR vIII cells and in the experiment on NIH3T3 cells (setting [1]) were 0.014 µM and more than 10 µM, respectively.
With `Cc1ccc2nc(-c3cc(Br)ccc3N)c(=O)[nH]c2c1` [Structural Formula (2), 3-(2-amino-5-bromophenyl)-7-methylhydroquinoxalin-2-one], the IC50 was 0.1 µM in the experiment on NIH3T3/EGFR vIII cells and more than 10 µM in the experiment with NIH3T3 cells (setting [1]).
The corresponding values for `O=c1[nH]c2ccccc2nc1-c1ccccc1NCc1ccc(F)cc1` [Structural Formula (12), 3-{2-[(4-fluorobenzyl)amino]phenyl}-2(1H)-quinoxalinone] are more than 10 µM and more than 10 µM.
As to `CCNc1ccccc1-c1nc2ccccc2[nH]c1=O` [Structural Formula (11), 3-[2-(ethylamino)phenyl]-2(1H)-quinoxalinone], the IC50 in the experiment on NIH3T3/EGFR vIII cells and in the experiment with NIH3T3 cells (setting [1]) was more than 10 µM each time.
